According to PubChem BioAssay AID1963863 (Molecular Pharmacology Branch, DTP, NCI, 2024):

System: 931267-113-T-J1-PDC KRAS spheroid with HUVEC/MSC, viability
Assay: Anticancer human tumor 931267-113-T-J1-PDC patient-derived colon adenocarcinoma cell line growth inhibition [KRAS2]
Details: for IC50: curve of first compound; for viability, T/C: stronger effect = lower value; active = viability on the fitted dose curve at most 10% of control; inactive = the rest
Procedure, shortened: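 KRAS-mutant tumor cells were grown as spheroids with HUVEC endothelial cells and human MSCs as stroma. Targeted agents were tested alone and with KRAS pathway inhibitors. Doses started at or near clinical Cmax, or 10 microM, descending half-log.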

[1] = second compound 0.1 µM, first compound 0.0316 µM
[2] = second compound 0.316 µM, first compound 0.0316 µM
[3] = second compound 1 µM, first compound 0.0316 µM
[4] = second compound 3.16 µM, first compound 0.0316 µM
[5] = second compound 10 µM, first compound 0.0316 µM
[6] = second compound 0.1 µM, first compound 0.1 µM
[7] = second compound 0.1 µM, first compound 0.316 µM
[8] = second compound 0.1 µM, first compound 1 µM
[9] = second compound 0.1 µM, first compound 3.16 µM
[10] = second compound 0.1 µM, first compound 10 µM
[11] = second compound 0.316 µM, first compound 0.1 µM
[12] = second compound 0.316 µM, first compound 0.316 µM
[13] = second compound 0.316 µM, first compound 1 µM
[14] = second compound 0.316 µM, first compound 3.16 µM
[15] = second compound 0.316 µM, first compound 10 µM
[16] = second compound 1 µM, first compound 0.1 µM
[17] = second compound 1 µM, first compound 0.316 µM
[18] = second compound 1 µM, first compound 1 µM
[19] = second compound 1 µM, first compound 3.16 µM
[20] = second compound 1 µM, first compound 10 µM
[21] = second compound 3.16 µM, first compound 0.1 µM
[22] = second compound 3.16 µM, first compound 0.316 µM
[23] = second compound 3.16 µM, first compound 1 µM
[24] = second compound 3.16 µM, first compound 3.16 µM
[25] = second compound 3.16 µM, first compound 10 µM
[26] = second compound 10 µM, first compound 0.1 µM
[27] = second compound 10 µM, first compound 0.316 µM
[28] = second compound 10 µM, first compound 1 µM
[29] = second compound 10 µM, first compound 3.16 µM
[30] = second compound 10 µM, first compound 10 µM
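Also: compound exposure lasted 7 days before the readout.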
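For viability, T/C in this document: 100% = DMSO vehicle control viability.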

CC(=O)Nc1cccc(-n2c(=O)n(C3CC3)c(=O)c3c(Nc4ccc(I)cc4F)n(C)c(=O)c(C)c32)c1 + COc1cc2nc(C)nc(NC(C)c3cc(N)cc(C(F)(F)F)c3)c2cc1OC1CCOC1
active: viability, T/C (second compound 10 µM, first compound 0.01 µM) 14.3% | viability, T/C [5] 1.54%
inactive: viability, T/C (second compound 0.1 µM, first compound 0.0001 µM) 75.8% | viability, T/C (second compound 0.1 µM, first compound 0.000316 µM) 75.3% | viability, T/C (second compound 0.1 µM, first compound 0.001 µM) 77.1% | viability, T/C (second compound 0.1 µM, first compound 0.00316 µM) 72.5% | viability, T/C (second compound 0.1 µM, first compound 0.01 µM) 51% | viability, T/C [1] 15.7% | viability, T/C (second compound 0.316 µM, first compound 0.0001 µM) 76.9% | viability, T/C (second compound 0.316 µM, first compound 0.000316 µM) 60.6% | viability, T/C (second compound 0.316 µM, first compound 0.001 µM) 64.8% | viability, T/C (second compound 0.316 µM, first compound 0.00316 µM) 51.3% | viability, T/C (second compound 0.316 µM, first compound 0.01 µM) 50% | viability, T/C [2] 13.7% | viability, T/C (second compound 1 µM, first compound 0.0001 µM) 87% | viability, T/C (second compound 1 µM, first compound 0.000316 µM) 71.7% | viability, T/C (second compound 1 µM, first compound 0.001 µM) 73.8% | viability, T/C (second compound 1 µM, first compound 0.00316 µM) 66.1% | viability, T/C (second compound 1 µM, first compound 0.01 µM) 52.1% | viability, T/C [3] 14.1% | viability, T/C (second compound 3.16 µM, first compound 0.0001 µM) 91.3% | viability, T/C (second compound 3.16 µM, first compound 0.000316 µM) 82.1% | viability, T/C (second compound 3.16 µM, first compound 0.001 µM) 75.1% | viability, T/C (second compound 3.16 µM, first compound 0.00316 µM) 59.5% | viability, T/C (second compound 3.16 µM, first compound 0.01 µM) 52% | viability, T/C [4] 19.6% | viability, T/C (second compound 10 µM, first compound 0.0001 µM) 21.4% | viability, T/C (second compound 10 µM, first compound 0.000316 µM) 37.6% | viability, T/C (second compound 10 µM, first compound 0.001 µM) 20.4% | viability, T/C (second compound 10 µM, first compound 0.00316 µM) 2.31%
7.73 nM: IC50 (second compound 3.16 µM)
9.82 nM: IC50 (second compound 1 µM)
< 0.1 nM: IC50 (second compound 10 µM)
10.3 nM: IC50 (second compound 0.1 µM)
5.76 nM: IC50 (second compound 0.316 µM)

COC(=O)c1ccc2c(C(=Nc3ccc(N(C)C(=O)CN4CCN(C)CC4)cc3)c3ccccc3)c(O)[nH]c2c1 + COc1cc2nc(C)nc(NC(C)c3cc(N)cc(C(F)(F)F)c3)c2cc1OC1CCOC1
inactive: viability, T/C [1] 88.1% | viability, T/C [6] 97.5% | viability, T/C [7] 69.8% | viability, T/C [8] 71.1% | viability, T/C [2] 77.5% | viability, T/C [11] 68.3% | viability, T/C [12] 55.2% | viability, T/C [13] 50% | viability, T/C [3] 73% | viability, T/C [16] 95.2% | viability, T/C [17] 57.6% | viability, T/C [18] 33.5% | viability, T/C [4] 95.6% | viability, T/C [21] 88.3% | viability, T/C [22] 78.2% | viability, T/C [23] 32.5%
637 nM: IC50 (second compound 3.16 µM)
1410 nM: IC50 (second compound 0.1 µM)
513 nM: IC50 (second compound 1 µM)
< 31.6 nM: IC50 (second compound 10 µM)
active: viability, T/C [9] 0.65% | viability, T/C [10] 0.3% | viability, T/C [14] 0.3% | viability, T/C [15] 0.83% | viability, T/C [19] 0.48% | viability, T/C [20] 0.34% | viability, T/C [24] 0.32% | viability, T/C [25] 0.26% | viability, T/C [5] 7.41% | viability, T/C [26] 2.82% | viability, T/C [27] 0.58% | viability, T/C [28] 0.41% | viability, T/C [29] 0.41% | viability, T/C [30] 0.26%
962 nM: IC50 (second compound 0.316 µM)

COc1cc(Nc2ncc3c(n2)-c2ccc(Cl)cc2C(c2c(F)cccc2OC)=NC3)ccc1C(=O)O + COc1cc2nc(C)nc(NC(C)c3cc(N)cc(C(F)(F)F)c3)c2cc1OC1CCOC1
inactive: viability, T/C [1] 102% | viability, T/C [6] 85.6% | viability, T/C [7] 80.7% | viability, T/C [8] 79.5% | viability, T/C [9] 87.8% | viability, T/C [10] 57% | viability, T/C [2] 86.5% | viability, T/C [11] 93.5% | viability, T/C [12] 75.3% | viability, T/C [13] 72.4% | viability, T/C [14] 57.9% | viability, T/C [15] 54.3% | viability, T/C [3] 85.6% | viability, T/C [16] 79.8% | viability, T/C [17] 86.3% | viability, T/C [18] 78.7% | viability, T/C [19] 66.5% | viability, T/C [20] 58.9% | viability, T/C [4] 90% | viability, T/C [21] 91% | viability, T/C [22] 82.9% | viability, T/C [23] 83.1% | viability, T/C [24] 79% | viability, T/C [25] 49.6% | viability, T/C [5] 75.5% | viability, T/C [26] 7.27% | viability, T/C [27] 13.8% | viability, T/C [28] 12.1% | viability, T/C [29] 64.3% | viability, T/C [30] 4.17%
> 10000 nM: IC50 (second compound 0.1 µM) | IC50 (second compound 0.316 µM) | IC50 (second compound 1 µM) | IC50 (second compound 3.16 µM)
53.9 nM: IC50 (second compound 10 µM)

COc1cc2nccc(Oc3ccc(NC(=O)C4(C(=O)Nc5ccc(F)cc5)CC4)cc3)c2cc1OC + COc1cc2nc(C)nc(NC(C)c3cc(N)cc(C(F)(F)F)c3)c2cc1OC1CCOC1
inactive: viability, T/C [1] 105% | viability, T/C [6] 112% | viability, T/C [7] 98.2% | viability, T/C [8] 93% | viability, T/C [9] 63.8% | viability, T/C [10] 44.8% | viability, T/C [2] 111% | viability, T/C [11] 102% | viability, T/C [12] 83.1% | viability, T/C [13] 90.9% | viability, T/C [14] 51.1% | viability, T/C [15] 37.2% | viability, T/C [3] 94.6% | viability, T/C [16] 107% | viability, T/C [17] 90.6% | viability, T/C [18] 91.5% | viability, T/C [19] 45.6% | viability, T/C [20] 28.5% | viability, T/C [4] 74% | viability, T/C [21] 87% | viability, T/C [22] 74.7% | viability, T/C [23] 41.4%
2840 nM: IC50 (second compound 1 µM)
7320 nM: IC50 (second compound 0.1 µM)
4890 nM: IC50 (second compound 0.316 µM)
747 nM: IC50 (second compound 3.16 µM)
< 31.6 nM: IC50 (second compound 10 µM)
active: viability, T/C [24] 4.72% | viability, T/C [25] 0.2% | viability, T/C [5] 1.73% | viability, T/C [26] 0.3% | viability, T/C [27] 0.4% | viability, T/C [28] 1.03% | viability, T/C [29] 0.15% | viability, T/C [30] 0.23%
